This is an account of results in ChEMBL document CHEMBL1130043, “Chemometric methodologies in a quantitative structure-activity relationship study: the antibacterial activity of 6-aminoquinolones” (1997).

What all share (assay type): functional
Test [1] concerns Staphylococcus aureus. In words: Antibacterial activity against Staphylococcus aureus MPR 5 (Gram positive) strain.
Test [2] deals with Staphylococcus epidermidis. In words: Antibacterial activity against Staphylococcus epidermidis HCF Berset C (Gram positive) strain.
In a further test the test system is Pseudomonas aeruginosa. Nature of the test: Antibacterial activity against Pseudomonas aeruginosa ATCC 9027(Gram negative) strain.
Another test deals with Klebsiella pneumoniae. In words: Antibacterial activity against Klebsiella pneumoniae ATCC 10031 (Gram negative) strain.
The subject of the next test is Enterobacter cloacae. In words: Antibacterial activity against Enterobacter cloacae OMNFI 174 (Gram negative) strain.
Test [3] has as its system Acinetobacter calcoaceticus. In words: Antibacterial activity against Acinetobacter calcoaceticus OSMPV 113 (Gram negative) strain.
In the next test the test system is Shigella. Nature of the test: Antibacterial activity against Shigella enteritidis (Gram negative) strain.
Test [4] deals with Escherichia coli. In words: Antibacterial activity against Escherichia coli ISF 432(Gram negative) strain.
In test [5] the test system is Staphylococcus epidermidis. Nature of the test: Antibacterial activity against Staphylococcus epidermidis CPHL A2 (Gram positive) strain, activity is expressed as log2MIC.
In test [6] the test system is Escherichia coli. In words: Antibacterial activity against Escherichia coli ATCC 8739(Gram negative) strain.
The test system of another test is Providencia stuartii. In words: Antibacterial activity against Providencia stuartii CNUR 5(Gram negative) strain.
A further test concerns Enterococcus faecalis. In words: Antibacterial activity against Streptococcus faecalis LEP Br (Gram positive) strain.
The subject of test [7] is Staphylococcus aureus. Nature of the test: Antibacterial activity against Staphylococcus aureus ATCC 6538 (Gram positive) strain.

As for `CN1CCN(c2cc3c(cc2N)c(=O)c(C(=O)O)cn3C2CC2)CC1`, the “Log2 MIC” value is 6 in the test with Staphylococcus aureus [1]; 5 in test [2]; 5 in the test on Pseudomonas aeruginosa; 12 in the test on Klebsiella pneumoniae; 9 with Enterobacter cloacae; 2 in test [3]. In addition, the “Log2 MIC” value in the test on Shigella is given as 9; in the test with Escherichia coli [4] it was 12; in test [5], 6; in the test on Escherichia coli [6], 9; in the test on Providencia stuartii, 4; in the test on Enterococcus faecalis it was 2. Further, in the test with Staphylococcus aureus [7], the “Log2 MIC” value was found to be 6.
Turning to `CN1CCN(c2c(N)c(N)c3c(=O)c(C(=O)O)cn(C4CC4)c3c2F)CC1`, the “Log2 MIC” value in the test on Staphylococcus aureus [1] is on record as 6; in [2], 5; in the test with Pseudomonas aeruginosa, 5; in the test with Klebsiella pneumoniae it was 12; in the test on Enterobacter cloacae, 10; in test [3], 6. In addition, the “Log2 MIC” value with Shigella is reported as 9; in the test on Escherichia coli [4], 12; in [5], 5; in the test on Escherichia coli [6], 12; in the test on Providencia stuartii, 6; in the test on Enterococcus faecalis it was 5. Besides, the “Log2 MIC” value in the test with Staphylococcus aureus [7] was determined as 6.
Turning to `Nc1cc2c(=O)c(C(=O)O)cn(C3CC3)c2cc1N1CCSCC1`, the “Log2 MIC” value in the test with Staphylococcus aureus [1] is recorded as 8; in test [2] it was 6; with Pseudomonas aeruginosa, 6; with Klebsiella pneumoniae, 12; in the test with Enterobacter cloacae, 8; in test [3], 7. Further, the “Log2 MIC” value in the test on Shigella came out at 8; in the test on Escherichia coli [4] it was 12; in test [5] it was 7; with Escherichia coli [6], 12; in the test on Providencia stuartii, 7; in the test on Enterococcus faecalis it was 4. For the same compound, the “Log2 MIC” value in the test with Staphylococcus aureus [7] was 8.
For the compound `CC(C)(C)n1cc(C(=O)O)c(=O)c2cc(N)c(N3CCCC3)cc21`, the “Log2 MIC” value with Staphylococcus aureus [1] is listed as 4; in test [2], 4; with Pseudomonas aeruginosa, 1; with Klebsiella pneumoniae, 10; with Enterobacter cloacae, 3; in [3] it was 3. The “Log2 MIC” value in the test on Shigella was determined as 2; in the test on Escherichia coli [4], 10; in test [5], 4; with Escherichia coli [6], 10; in the test on Providencia stuartii it was 1; in the test on Enterococcus faecalis, 0. In addition, the “Log2 MIC” value in the test with Staphylococcus aureus [7] stood at 5.
Consider `Nc1cc2c(=O)c(C(=O)O)cn(C3CC3)c2cc1NC1CC1`, for which the “Log2 MIC” value in the test on Staphylococcus aureus [1] is reported as 0; in [2], 0; in the test on Pseudomonas aeruginosa it was 0; in the test on Klebsiella pneumoniae, 6; with Enterobacter cloacae, 1; in test [3], 0. In addition, the “Log2 MIC” value in the test on Shigella is on record as 1; with Escherichia coli [4] it was 5; in test [5], 0; in the test with Escherichia coli [6] it was 6; in the test with Providencia stuartii, 0; in the test with Enterococcus faecalis, 0. For the same compound, the “Log2 MIC” value with Staphylococcus aureus [7] came out at 0.
Turning to `CC(C)(C)n1cc(C(=O)O)c(=O)c2cc(N)c(N3CCSCC3)cc21`, the “Log2 MIC” value in the test on Staphylococcus aureus [1] is on record as 9; in [2], 8; in the test on Pseudomonas aeruginosa, 5; in the test with Klebsiella pneumoniae it was 12; in the test with Enterobacter cloacae, 6; in test [3], 8. The “Log2 MIC” value with Shigella is on record as 6; in the test on Escherichia coli [4] it was 12; in test [5], 8; with Escherichia coli [6] it was 11; in the test on Providencia stuartii, 5; in the test with Enterococcus faecalis it was 4. Besides, the “Log2 MIC” value with Staphylococcus aureus [7] came out at 9.
Consider `Nc1cc2c(=O)c(C(=O)O)cn(C3CC3)c2cc1N1CCC(O)CC1`, for which the “Log2 MIC” value with Staphylococcus aureus [1] is 5; in test [2], 5; with Pseudomonas aeruginosa, 4; with Klebsiella pneumoniae, 12; with Enterobacter cloacae, 6; in [3], 0. The “Log2 MIC” value in the test on Shigella stood at 6; in the test on Escherichia coli [4], 12; in [5] it was 6; with Escherichia coli [6], 12; with Providencia stuartii it was 4; in the test with Enterococcus faecalis, 4. In the test with Staphylococcus aureus [7], the “Log2 MIC” value came out at 5.
With `Nc1cc2c(=O)c(C(=O)O)cn(C3CC3)c2cc1N1CCSC1`, the “Log2 MIC” value is 0 in the test on Staphylococcus aureus [1]; 1 in test [2]; 0 with Pseudomonas aeruginosa; 8 in the test with Klebsiella pneumoniae; 3 in the test with Enterobacter cloacae; 0 in test [3]. For the same compound, the “Log2 MIC” value in the test with Shigella was determined as 2; with Escherichia coli [4] it was 7; in test [5] it was 1; in the test with Escherichia coli [6] it was 8; in the test with Providencia stuartii it was 0; in the test on Enterococcus faecalis, 0. Besides, the “Log2 MIC” value in the test on Staphylococcus aureus [7] is 1.
In the case of `Cc1c(N2CC(C)NC(C)C2)c(N)cc2c(=O)c(C(=O)O)cn(C3CC3)c12` (stereo not drawn), the “Log2 MIC” value is recorded as 7 with Staphylococcus aureus [1]; 6 in test [2]; 6 in the test on Pseudomonas aeruginosa; 12 in the test with Klebsiella pneumoniae; 8 in the test with Enterobacter cloacae; 6 in [3]. Besides, the “Log2 MIC” value with Shigella amounted to 9; in the test with Escherichia coli [4], 12; in [5], 7; in the test with Escherichia coli [6], 11; in the test on Providencia stuartii, 6; in the test on Enterococcus faecalis, 3. The “Log2 MIC” value in the test on Staphylococcus aureus [7] was 7.
For `CC(C)(C)n1cc(C(=O)O)c(=O)c2cc(N)c(N3CCc4ccccc43)cc21`, the “Log2 MIC” value in the test on Staphylococcus aureus [1] was 6; in test [2] it was 5; in the test on Pseudomonas aeruginosa, 2; in the test with Klebsiella pneumoniae, 10; with Enterobacter cloacae, 4; in [3], 4. In addition, the “Log2 MIC” value was 4 in the test on Shigella; 10 in the test with Escherichia coli [4]; 5 in [5]; 10 with Escherichia coli [6]; 5 in the test on Providencia stuartii; 1 in the test on Enterococcus faecalis. Moreover, in the test with Staphylococcus aureus [7], the “Log2 MIC” value was 6.
With `N#CCN1CCN(c2cc3c(cc2N)c(=O)c(C(=O)O)cn3C2CC2)CC1`, the “Log2 MIC” value in the test on Staphylococcus aureus [1] is on record as 1; in test [2], 1; with Pseudomonas aeruginosa it was 2; with Klebsiella pneumoniae it was 6; with Enterobacter cloacae it was 6; in test [3], 1. Besides, the “Log2 MIC” value came out at 6 in the test with Shigella; 6 with Escherichia coli [4]; 1 in test [5]; 5 with Escherichia coli [6]; 1 with Providencia stuartii; 1 with Enterococcus faecalis. For the same compound, in the test with Staphylococcus aureus [7], the “Log2 MIC” value is listed as 1.
`CC1CN(c2cc3c(cc2N)c(=O)c(C(=O)O)cn3C2CC2)CC(C)N1` (stereo not drawn): the “Log2 MIC” value in the test with Staphylococcus aureus [1] is given as 4; in [2] it was 5; with Pseudomonas aeruginosa, 6; in the test on Klebsiella pneumoniae, 12; in the test on Enterobacter cloacae, 8; in [3], 4. In addition, the “Log2 MIC” value was 9 in the test on Shigella; 12 in the test on Escherichia coli [4]; 6 in [5]; 12 in the test with Escherichia coli [6]; 5 in the test on Providencia stuartii; 2 with Enterococcus faecalis. The “Log2 MIC” value in the test with Staphylococcus aureus [7] is listed as 4.
Consider `CN1CCN(c2c(N)cc3c(=O)c(C(=O)O)cn(C4CC4)c3c2F)CC1`, for which the “Log2 MIC” value in the test with Staphylococcus aureus [1] was 5; in test [2], 4; in the test on Pseudomonas aeruginosa, 6; in the test on Klebsiella pneumoniae it was 11; in the test on Enterobacter cloacae it was 9; in test [3] it was 4. Besides, the “Log2 MIC” value was found to be 8 in the test on Shigella; 11 with Escherichia coli [4]; 5 in test [5]; 7 in the test on Escherichia coli [6]; 5 in the test on Providencia stuartii; 1 with Enterococcus faecalis. In the test on Staphylococcus aureus [7], the “Log2 MIC” value is reported as 5.
As for `CC1CN(c2cc3c(cc2N)c(=O)c(C(=O)O)cn3C2CC2)CCN1` (stereo not drawn), the “Log2 MIC” value in the test with Staphylococcus aureus [1] is 3; in [2], 5; with Pseudomonas aeruginosa it was 6; in the test on Klebsiella pneumoniae it was 12; in the test with Enterobacter cloacae, 9; in test [3], 3. Moreover, the “Log2 MIC” value in the test on Shigella was 9; in the test on Escherichia coli [4], 12; in test [5], 5; with Escherichia coli [6], 12; in the test with Providencia stuartii, 3; with Enterococcus faecalis, 2. The “Log2 MIC” value in the test with Staphylococcus aureus [7] turned out to be 3.
For the compound `CC(C)(C)n1cc(C(=O)O)c(=O)c2cc(N)c(N3CCc4ccccc4C3)cc21`, the “Log2 MIC” value is recorded as 8 in the test with Staphylococcus aureus [1]; 7 in [2]; 2 in the test with Pseudomonas aeruginosa; 10 with Klebsiella pneumoniae; 4 in the test with Enterobacter cloacae; 6 in test [3]. For the same compound, the “Log2 MIC” value was 4 in the test with Shigella; 10 with Escherichia coli [4]; 8 in test [5]; 10 in the test on Escherichia coli [6]; 5 in the test with Providencia stuartii; 4 with Enterococcus faecalis. Further, the “Log2 MIC” value with Staphylococcus aureus [7] came to 9.
With `Nc1cc2c(=O)c(C(=O)O)cn(C3CC3)c2cc1N1CCNCC1`, the “Log2 MIC” value was 1 in the test on Staphylococcus aureus [1]; 3 in [2]; 6 with Pseudomonas aeruginosa; 9 in the test with Klebsiella pneumoniae; 9 in the test with Enterobacter cloacae; 3 in test [3]. Moreover, the “Log2 MIC” value in the test on Shigella came out at 8; with Escherichia coli [4] it was 12; in test [5], 3; with Escherichia coli [6], 9; in the test on Providencia stuartii it was 2; in the test on Enterococcus faecalis, 0. Besides, in the test on Staphylococcus aureus [7], the “Log2 MIC” value is listed as 1.
